The source of these data is ChEMBL document CHEMBL3044747, “The antimycobacterial MICs, SARs, and QSARs of some ethnobotanically selected phytocompounds” (2013).

Converted amounts (≈) assume the structure as drawn.

By MIC is commonly meant the lowest concentration that inhibits growth of the organism.

What all share (format): functional
Holding throughout (details): 672 h

The subject of assay [1] is Mycobacterium tuberculosis. Briefly: Antimycobacterial activity against Mycobacterium tuberculosis H37Rv grown in MGIT liquid medium assessed as growth inhibition measured after 4 weeks by BACTEC method.
For assay [2], the system named is Mycobacterium tuberculosis. Kind of assay: Antimycobacterial activity against MDR Mycobacterium tuberculosis grown in MGIT liquid medium assessed as growth inhibition measured after 4 weeks by BACTEC method.
For assay [3], the system named is Mycobacterium tuberculosis. Briefly: Antimycobacterial activity against Mycobacterium tuberculosis H37Rv grown on Lowenstein-Jensen solid medium assessed as growth inhibition incubated with compound dissolved in DMSO measured after 4 weeks.
Assay [4] has as its system Mycobacterium tuberculosis. Kind of assay: Antimycobacterial activity against Mycobacterium tuberculosis H37Rv grown on Lowenstein-Jensen solid medium assessed as growth inhibition incubated with compound dissolved in water measured after 4 weeks.
Assay [5] deals with Mycobacterium tuberculosis. Kind of assay: Antimycobacterial activity against Mycobacterium tuberculosis H37Rv grown on Lowenstein-Jensen solid medium assessed as growth inhibition incubated with compound dissolved in ethanol/methanol measured after 4 weeks.
In assay [6] the test system is Mycobacterium tuberculosis. Briefly: Antimycobacterial activity against Mycobacterium tuberculosis H37Rv grown on Lowenstein-Jensen solid medium assessed as growth inhibition measured after 4 weeks.

Take `CCCCCCCCCCCCCC1=C(O)C(=O)C=C(O)C1=O` [Rapanone]: the values for the MIC in assay [1] and in assay [2] were 35 µg/mL (≈ 109 µM) and 65 µg/mL (≈ 202 µM), respectively.

Consider `CCC1=C(O)C(=O)C=C(O)C1=O`, for which the MIC turned out to be 109 µg/mL (≈ 648 µM) in assay [1], 70 µg/mL (≈ 416 µM) in assay [3], 62.3 µg/mL (≈ 371 µM) in assay [4] and 120 µg/mL (≈ 714 µM) in assay [2].

As to `CCCCCCCC1=C(O)C(=O)C=C(O)C1=O`, the MIC was 45 µg/mL (≈ 189 µM) in assay [1] and 106 µg/mL (≈ 445 µM) in assay [2].

`CCCC/C=C/CCCCCCCCCCCCCC1=C(C(C)=O)C(=O)C(C)=C(OC(C)=O)C1=O`: the MIC stood at 5 µg/mL (≈ 10.3 µM) in assay [1] and 27.5 µg/mL (≈ 56.5 µM) in assay [2].

As for `CCCCCCCCCCCC1=C(O)C(=O)C=C(O)C1=O` [EMBELIN], the MIC in assay [1] was 15 µg/mL (≈ 51 µM); in assay [3], 35.3 µg/mL (≈ 120 µM); in assay [4] it was 49 µg/mL (≈ 166 µM); in assay [2], 50 µg/mL (≈ 170 µM); in assay [5] it was 14.7 µg/mL (≈ 49.9 µM).

With `COc1ccc2c(c1OC)C=NC1C2CCC2CC3OCOC3CC21.Cl` (stereo not drawn), the values for the MIC in assay [3], in assay [4] and in assay [5] were 31.3 µg/mL, 50.3 µg/mL and 16 µg/mL, respectively.

`CCCC/C=C/CCCCCCCCCC1=C(O)C(=O)C=C(OC)C1=O`: the MIC in assay [3] amounted to 40.7 µg/mL (≈ 112 µM); in assay [4], 50 µg/mL (≈ 138 µM).

As to `CC[C@@H](CO)NCCN[C@@H](CC)CO` [ETHAMBUTOL], the values for the MIC in assay [1], in assay [6] and in assay [2] were 2.5 µg/mL (≈ 12.2 µM), 2.65 µg/mL (≈ 13 µM) and 15 µg/mL (≈ 73.4 µM), respectively.

For `CCCC/C=C/CCCCCCCCCCCCCc1c(O)c(OC(C)=O)c(C)c(OC(C)=O)c1OC(C)=O`, the MIC came out at 10 µg/mL (≈ 18.3 µM) in assay [1] and 40 µg/mL (≈ 73.2 µM) in assay [2].

In the case of `COc1cc(O)c2c(=O)c(O)c(-c3ccc(O)cc3)oc2c1` [RHAMNOCITRIN], the MIC was 37.7 µg/mL (≈ 126 µM) in assay [3], 59.7 µg/mL (≈ 199 µM) in assay [4] and 15.3 µg/mL (≈ 51 µM) in assay [5].

Consider `C[C@@H]1CCC2(CO)C(C(=O)O)=CCCC2[C@@]1(C)CCc1ccoc1` (stereo partly drawn), for which the MIC in assay [3] turned out to be 37.4 µg/mL (≈ 113 µM); in assay [4], 36.7 µg/mL (≈ 110 µM); in assay [5], 31 µg/mL (≈ 93.2 µM).

Regarding `CCCCCCCCCCCC1=C(OC)C(=O)C=C(OC)C1=O`, the MIC was 10 µg/mL (≈ 31 µM) in assay [1] and 20 µg/mL (≈ 62 µM) in assay [2].

As to `CCCCCCCCCCCC1=C(O)C(=O)C=C(OC)C1=O` [5-O-METHYLEMBELIN], the values for the MIC in assay [1] and in assay [2] were 15 µg/mL (≈ 48.6 µM) and 32.9 µg/mL (≈ 107 µM), respectively.

`CN[C@@H]1[C@H](O[C@H]2[C@H](O[C@H]3[C@H](O)[C@@H](O)[C@H](N=C(N)N)[C@@H](O)[C@@H]3N=C(N)N)O[C@@H](C)[C@]2(O)C=O)O[C@@H](CO)[C@H](O)[C@H]1O` [STREPTOMYCIN]: the MIC in assay [1] worked out at 3.3 µg/mL (≈ 5.67 µM); in assay [6], 4.95 µg/mL (≈ 8.51 µM); in assay [2] it was 2.5 µg/mL (≈ 4.3 µM).

`CCCCCCCCCCCCCC1=C(O)C(=O)C=C(OC)C1=O` [Sorgoleone-364]: the MIC in assay [1] was 60 µg/mL (≈ 178 µM); in assay [2], 70 µg/mL (≈ 208 µM).

Turning to `COc1cc(-c2cc(=O)c3c(O)cc(O)cc3o2)c(OC)c(OC)c1OC`, the MIC in assay [3] came to 15 µg/mL (≈ 40.1 µM); in assay [4] it was 48 µg/mL (≈ 128 µM); in assay [5], 7.4 µg/mL (≈ 19.8 µM).

For `CCCCCCCCCC1=C(O)C(=O)C=C(O)C1=O`, the minimum inhibitory concentration (MIC) in assay [1] stood at 7.5 µg/mL (≈ 28.2 µM); in assay [2], 60 µg/mL (≈ 225 µM).

Consider `COc1ccc(-c2oc3cc(O)cc(O)c3c(=O)c2O)cc1` [KAEMPFERIDE], for which the MIC in assay [3] came to 32.7 µg/mL (≈ 109 µM); in assay [4], 26 µg/mL (≈ 86.6 µM).

For the molecule `CCCC1=C(O)C(=O)C=C(O)C1=O`, the MIC in assay [1] was 85 µg/mL (≈ 467 µM); in assay [2], 115 µg/mL (≈ 631 µM).

In the case of `COc1cc2c(=O)c(-c3ccc4c(c3)OCO4)coc2c2c1OC(C)(C)CC2`, the MIC was determined as 74.7 µg/mL (≈ 196 µM) in assay [3], 37.9 µg/mL (≈ 99.6 µM) in assay [4] and 40.3 µg/mL (≈ 106 µM) in assay [5].

Take `c1c2c(cc3c1C1CCN4CCC[C@@]56CCN3[C@@]1(CC5)C46)OCO2` (stereo partly drawn): the MIC was 36.2 µg/mL (≈ 112 µM) in assay [3] and 38.7 µg/mL (≈ 119 µM) in assay [4].

Turning to `CCCCCCCCCCCCCCCC1=C(O)C(=O)C=C(O)C1=O`, the MIC in assay [1] was 107 µg/mL (≈ 305 µM); in assay [2], 105 µg/mL (≈ 300 µM).

Regarding `C=C1CC23CCC4[C@](O)(CO)C[C@@H](O)C[C@]4(C)C2CCC1C3` (stereo partly drawn), the values for the MIC in assay [3], in assay [4] and in assay [5] were 37.6 µg/mL (≈ 123 µM), 66.8 µg/mL (≈ 218 µM) and 39.7 µg/mL (≈ 130 µM), respectively.

Consider `O=C1C[C@@H](c2ccccc2)Oc2cc(O)cc(O)c21` [PINOCEMBRIN], for which the results for the MIC in assay [3] and in assay [4] were 73 µg/mL (≈ 285 µM) and 63.3 µg/mL (≈ 247 µM), respectively.

With `COc1cc(O)c(CCCc2ccccc2)c(O)c1OC`, the MIC in assay [3] came to 34.3 µg/mL (≈ 119 µM); in assay [4], 49.7 µg/mL (≈ 172 µM).

For `Cc1cc(O)c2c(c1)C(=O)c1cc(O)cc(O)c1C2=O` [EMODIN], the MIC in assay [3] stood at 51.7 µg/mL (≈ 191 µM); in assay [4], 50.3 µg/mL (≈ 186 µM).

For the molecule `CCC1=C(O)C(=O)C(CC)=C(O)C1=O`, the MIC in assay [1] was determined as 50 µg/mL (≈ 255 µM); in assay [2], 55 µg/mL (≈ 280 µM).

`NNC(=O)c1ccncc1` [ISONIAZID]: the MIC was found to be 0.8 µg/mL (≈ 5.83 µM) in assay [1], 0.6 µg/mL (≈ 4.38 µM) in assay [6] and 2.7 µg/mL (≈ 19.7 µM) in assay [2].

Consider `COc1cc(O)cc(O)c1C/C=C/c1ccccc1`, for which the MIC was 49.7 µg/mL (≈ 194 µM) in assay [3] and 53.7 µg/mL (≈ 210 µM) in assay [4].

Regarding `CCCCCC1=C(O)C(=O)C=C(O)C1=O`, the MIC in assay [1] stood at 50 µg/mL (≈ 238 µM); in assay [2], 110 µg/mL (≈ 523 µM).

With `CC1=CC(=O)c2c(O)cccc2C1=O` [PLUMBAGIN], the MIC in assay [3] is 42.3 µg/mL (≈ 225 µM); in assay [4], 40.3 µg/mL (≈ 214 µM).

Turning to `COc1ccc(-c2oc3cc(O)c(OC)c(O)c3c(=O)c2OC)cc1` [SANTIN], the MIC in assay [3] was 59 µg/mL (≈ 171 µM); in assay [4], 51 µg/mL (≈ 148 µM).

For the molecule `COc1cc(O)c(C/C=C/c2ccccc2)c(OC)c1`, the figures for the MIC in assay [3] and in assay [4] were 58.4 µg/mL (≈ 216 µM) and 37.9 µg/mL (≈ 140 µM), respectively.

Regarding `COc1ccc(-c2coc3cc(O)cc(O)c3c2=O)cc1C=O`, the figures for the MIC in assay [3] and in assay [4] were 37 µg/mL (≈ 118 µM) and 36.3 µg/mL (≈ 116 µM), respectively.

Regarding `COc1ccc(C2Oc3cc(O)c(OC)c(O)c3C(=O)C2OC)cc1` (stereo not drawn), the MIC in assay [3] came out at 53 µg/mL (≈ 153 µM); in assay [4], 59.3 µg/mL (≈ 171 µM).

For `CCCCCCCCCCCC1=C(C(C)=O)C(=O)C=C(OC(C)=O)C1=O`, the MIC came out at 42.5 µg/mL (≈ 117 µM) in assay [1] and 50 µg/mL (≈ 138 µM) in assay [2].

Regarding `CCCC/C=C/CCCCCCCCCC1=C(O)C(=O)C(C)=C(O)C1=O`, the figures for the MIC in assay [3] and in assay [4] were 41.3 µg/mL (≈ 114 µM) and 40.9 µg/mL (≈ 113 µM), respectively.

`CC(C)CCc1cc2c(cc1O)OCC1c3cc(O)cc(CCC(C)C)c3OC21` (stereo not drawn): the MIC in assay [3] was 74.3 µg/mL (≈ 187 µM); in assay [4], 81.7 µg/mL (≈ 206 µM).

Turning to `C[C@]12CC(=O)CC(CO)(CO)C1CC[C@@]13CC4[C@@H](CC12)[C@@]4(C)C3` (stereo partly drawn), the MIC in assay [3] was 42.9 µg/mL (≈ 135 µM); in assay [4], 23.3 µg/mL (≈ 73.2 µM); in assay [5], 42.3 µg/mL (≈ 133 µM).

On to `O=C1CCc2nccc3c4ccccc4n1c23`, for which the MIC in assay [3] came to 42 µg/mL (≈ 189 µM); in assay [4], 49.3 µg/mL (≈ 222 µM); in assay [5], 30 µg/mL (≈ 135 µM).

`COc1cc(O)c(C/C=C/c2ccccc2)c(O)c1OC`: the MIC is 41 µg/mL (≈ 143 µM) in assay [3] and 48.3 µg/mL (≈ 169 µM) in assay [4].

Take `CO[C@H]1/C=C/O[C@@]2(C)Oc3c(C)c(O)c4c(O)c(c(/C=N/N5CCN(C)CC5)c(O)c4c3C2=O)NC(=O)/C(C)=C\C=C\[C@H](C)[C@H](O)[C@@H](C)[C@@H](O)[C@@H](C)[C@H](OC(C)=O)[C@@H]1C` [RIFAMPIN]: the MIC in assay [1] stood at 7.5 µg/mL (≈ 9.11 µM); in assay [6], 45.7 µg/mL (≈ 55.5 µM); in assay [2], 30 µg/mL (≈ 36.5 µM).

With `CC(=O)c1c(C)cc2cccc(O)c2c1O` [NEPODIN], the minimal inhibitory concentration (MIC) in assay [3] came to 40.3 µg/mL (≈ 186 µM); in assay [4], 84.7 µg/mL (≈ 392 µM).
